# Source: patent publication US10980232B2, “Herbicidal composition comprising cinmethylin and pyroxasulfone” (BASF Agro B.V., priority 2015, dated 2021)
# Key:
# Type in all cases: in vivo
# [1] = system: POLCO (Polygonum convolvulus); experiment: Greenhouse postemergence herbicidal activity, POLCO; conditions: herbicide A solo 250 g ai/ha, 20 DAT
# Procedure: (§1) The test plants have been seeded, separately for each species, in plastic containers in sandy loamy soil containing 5% of organic matter.
# (§2) For the post emergence treatment, the plants were first grown to the 2 leaf station (GS 12). Here, the herbicidal compositions were suspended or emulsified in water as distribution medium and sprayed using finely distributing nozzels.
# (§3) The plants have been cultivated due to their individual requirements at 10-25° C. and 20-35° C. The plants were irrigated due to their necessity.
# (§4) The racemic mixture (±)-2-exo-(2-Methylbenzyloxy)-1-methyl-4-isopropyl-7-oxabicyclo[2.2.1]heptane was used as herbicide A and formulated as emulsifiable concentrates with an active ingredient concentration of 50 g/l, 100 g/l or 750 g/l respectively.
# (§5) Pyroxasulfone (herbicide B) was used as a water dispersible granule (85% WG).
# (§6) In the following experiments, the herbicidal activity for the individual herbicidal compositions (solo and mixture applications) was assessed 20 days after treatment (DAT). […]
# (§7) The value E corresponds to the effect (plant damage or injury) which is to be expected if the activity of the individual compounds is additive. If the observed effect is higher than the value E calculated according to the Colby equation, a synergistic effect is present.
# GALAP (Galium aparine) = experiment: Greenhouse preemergence herbicidal activity, GALAP; conditions: 20 DAT
# Procedure: as §1
# (§8) The containers were irrigated gently to promote germination and growth and subsequently covered with transparent plastic hoods until the plants had rooted.
# as §3, §4, §5
# (§9) In the following experiments, the herbicidal activity for the individual herbicidal compositions (solo and mixture applications) was assessed 20 days after treatment (DAT).
# (§10) The evaluation for the damage on undesired weeds caused by the chemical compositions was carried out using a scale from 0 to 100%, compared to the untreated control plants. Here, 0 means no damage and 100 means complete destruction of the plants.
# (§11) E=X+Y−(X·Y/100) where X=effect in percent using herbicide A at an application rate a; • Y=effect in percent using herbicide B at application rate b; • E=expected effect (in %) of herbicide A+herbicide B at application rates a+b.
# as §7
# [2] = system: AMARE (Amaranthus retroflexus); experiment: Greenhouse preemergence herbicidal activity, AMARE; conditions: herbicide A solo 25 g ai/ha, 20 DAT
# Procedure: as §1, §8, §3, §4, §5, §9
# The evaluation for the damage on undesired weeds caused by the chemical compositions was carried out using a scale from 0 to 100%, compared to the untreated control plants. […]
# as §7
# [3] = system: POLCO (Polygonum convolvulus); experiment: Greenhouse preemergence herbicidal activity, POLCO; conditions: 20 DAT
# Procedure: as §1, §8, §3, §4, §5, §9, §10, §11, §7
# STEME (Stellaria media) [4] = experiment: Greenhouse preemergence herbicidal activity, STEME; conditions: 20 DAT
# Procedure: as §1, §8, §3, §4, §5, §9, §10, §11, §7
# AVEFA (Avena fatua) [5] = experiment: Greenhouse preemergence herbicidal activity, AVEFA; conditions: 20 DAT
# Procedure: as §1, §8, §3, §4, §5, §9, §10, §11, §7
# [6] = system: CHEAL (Chenopodium album); experiment: Greenhouse preemergence herbicidal activity, CHEAL; conditions: 20 DAT
# Procedure: as §1, §8, §3, §4, §5, §9, §10, §11, §7
# AVEFA (Avena fatua) [7] = experiment: Greenhouse postemergence herbicidal activity, AVEFA; conditions: 20 DAT
# Procedure: as §1, §2, §3, §4, §5, §9, §10, §11, §7
# [8] = system: ANTAR (Anthemis arvensis); experiment: Greenhouse postemergence herbicidal activity, ANTAR; conditions: 20 DAT
# Procedure: as §1, §2, §3, §4, §5, §9, §10, §11, §7
# [9] = system: SORHA (Sorghum halepense); experiment: Greenhouse postemergence herbicidal activity, SORHA; conditions: herbicide A solo 62.5 g ai/ha, 20 DAT
# Procedure: as §1, §2, §3, §4, §5, §6, §7
# [10] = system: CHEAL (Chenopodium album); experiment: Greenhouse postemergence herbicidal activity, CHEAL; conditions: 20 DAT
# Procedure: as §1, §2, §3, §4, §5, §9, §10, §11, §7
# [11] = system: GERDI (Geranium dissectum); experiment: Greenhouse preemergence herbicidal activity, GERDI; conditions: 20 DAT
# Procedure: as §1, §8, §3, §4, §5, §9, §10, §11, §7
# [12] = system: LOLMU (Lolium multiflorum); experiment: Greenhouse postemergence herbicidal activity, LOLMU; conditions: 20 DAT
# Procedure: as §1, §2, §3, §4, §5, §9, §10, §11, §7
# [13] = system: LOLMU (Lolium multiflorum); experiment: Greenhouse preemergence herbicidal activity, LOLMU; conditions: 20 DAT
# Procedure: as §1, §8, §3, §4, §5, §9, §10, §11, §7
# [14] = system: AMARE (Amaranthus retroflexus); experiment: Greenhouse postemergence herbicidal activity, AMARE; conditions: herbicide A solo 250 g ai/ha, 20 DAT
# Procedure: as §1, §2, §3, §4, §5, §6, §7
# [15] = system: ANTAR (Anthemis arvensis); experiment: Greenhouse preemergence herbicidal activity, ANTAR; conditions: 20 DAT
# Procedure: as §1, §8, §3, §4, §5, §9, §10, §11, §7
# STEME (Stellaria media) [16] = experiment: Greenhouse postemergence herbicidal activity, STEME; conditions: 20 DAT
# Procedure: as §1, §2, §3, §4, §5, §9, §10, §11, §7
# [17] = system: ABUTH (Abutilon theoprasti); experiment: Greenhouse preemergence herbicidal activity, ABUTH; conditions: 20 DAT
# Procedure: as §1, §8, §3, §4, §5, §9, §10, §11, §7
compound,measurement,setting,value
"Cc1ccccc1CO[C@@H]1C[C@@]2(C(C)C)CC[C@]1(C)O2 (racemic) [herbicide A, (±)-2-exo-(2-Methylbenzyloxy)-1-methyl-4-isopropyl-7-oxabicyclo[2.2.1]heptane]",herbicidal activity,[1],40%
same,herbicidal activity,GALAP (Galium aparine); herbicide A solo 25 g ai/ha,0%
same,herbicidal activity,GALAP (Galium aparine); herbicide A solo 50 g ai/ha,0%
same,herbicidal activity,GALAP (Galium aparine); herbicide A solo 200 g ai/ha,30%
same,herbicidal activity,GALAP (Galium aparine); herbicide A solo 300 g ai/ha,30%
same,herbicidal activity,[2],0%
same,herbicidal activity,[3]; herbicide A solo 37.5 g ai/ha,0%
same,herbicidal activity,[3]; herbicide A solo 50 g ai/ha,0%
same,herbicidal activity,[3]; herbicide A solo 75 g ai/ha,0%
same,herbicidal activity,[3]; herbicide A solo 100 g ai/ha,0%
same,herbicidal activity,[3]; herbicide A solo 200 g ai/ha,0%
same,herbicidal activity,[3]; herbicide A solo 300 g ai/ha,0%
same,herbicidal activity,STEME (Stellaria media) [4]; herbicide A solo 25 g ai/ha,20%
same,herbicidal activity,STEME (Stellaria media) [4]; herbicide A solo 37.5 g ai/ha,0%
same,herbicidal activity,STEME (Stellaria media) [4]; herbicide A solo 50 g ai/ha,20%
same,herbicidal activity,STEME (Stellaria media) [4]; herbicide A solo 75 g ai/ha,20%
same,herbicidal activity,AVEFA (Avena fatua) [5]; herbicide A solo 37.5 g ai/ha,0%
same,herbicidal activity,AVEFA (Avena fatua) [5]; herbicide A solo 50 g ai/ha,0%
same,herbicidal activity,AVEFA (Avena fatua) [5]; herbicide A solo 75 g ai/ha,20%
same,herbicidal activity,AVEFA (Avena fatua) [5]; herbicide A solo 150 g ai/ha,40%
same,herbicidal activity,[6]; herbicide A solo 25 g ai/ha,20%
same,herbicidal activity,[6]; herbicide A solo 37.5 g ai/ha,20%
same,herbicidal activity,[6]; herbicide A solo 50 g ai/ha,30%
same,herbicidal activity,[6]; herbicide A solo 75 g ai/ha,20%
same,herbicidal activity,AVEFA (Avena fatua) [7]; herbicide A solo 43.75 g ai/ha,25%
same,herbicidal activity,AVEFA (Avena fatua) [7]; herbicide A solo 87.5 g ai/ha,30%
same,herbicidal activity,AVEFA (Avena fatua) [7]; herbicide A solo 125 g ai/ha,60%
same,herbicidal activity,[8]; herbicide A solo 62.5 g ai/ha,40%
same,herbicidal activity,[8]; herbicide A solo 175 g ai/ha,90%
same,herbicidal activity,[8]; herbicide A solo 250 g ai/ha,90%
same,herbicidal activity,[9],40%
same,herbicidal activity,[10]; herbicide A solo 62.5 g ai/ha,30%
same,herbicidal activity,[10]; herbicide A solo 87.5 g ai/ha,65%
same,herbicidal activity,[10]; herbicide A solo 125 g ai/ha,50%
same,herbicidal activity,[10]; herbicide A solo 175 g ai/ha,60%
same,herbicidal activity,[10]; herbicide A solo 500 g ai/ha,75%
same,herbicidal activity,[11]; herbicide A solo 50 g ai/ha,50%
same,herbicidal activity,[11]; herbicide A solo 100 g ai/ha,50%
same,herbicidal activity,[11]; herbicide A solo 150 g ai/ha,50%
same,herbicidal activity,[12]; herbicide A solo 43.75 g ai/ha,0%
same,herbicidal activity,[12]; herbicide A solo 62.5 g ai/ha,0%
same,herbicidal activity,[12]; herbicide A solo 87.5 g ai/ha,0%
same,herbicidal activity,[12]; herbicide A solo 125 g ai/ha,0%
same,herbicidal activity,[13]; herbicide A solo 25 g ai/ha,50%
same,herbicidal activity,[13]; herbicide A solo 37.5 g ai/ha,60%
same,herbicidal activity,[14],25%
same,herbicidal activity,[15]; herbicide A solo 25 g ai/ha,0%
same,herbicidal activity,[15]; herbicide A solo 37.5 g ai/ha,0%
same,herbicidal activity,[15]; herbicide A solo 50 g ai/ha,0%
same,herbicidal activity,[15]; herbicide A solo 75 g ai/ha,0%
same,herbicidal activity,[15]; herbicide A solo 100 g ai/ha,0%
same,herbicidal activity,[15]; herbicide A solo 150 g ai/ha,0%
same,herbicidal activity,[15]; herbicide A solo 200 g ai/ha,0%
same,herbicidal activity,[15]; herbicide A solo 300 g ai/ha,0%
same,herbicidal activity,STEME (Stellaria media) [16]; herbicide A solo 43.75 g ai/ha,0%
same,herbicidal activity,STEME (Stellaria media) [16]; herbicide A solo 62.5 g ai/ha,25%
same,herbicidal activity,STEME (Stellaria media) [16]; herbicide A solo 125 g ai/ha,65%
same,herbicidal activity,STEME (Stellaria media) [16]; herbicide A solo 175 g ai/ha,40%
same,herbicidal activity,STEME (Stellaria media) [16]; herbicide A solo 250 g ai/ha,70%
same,herbicidal activity,[17]; herbicide A solo 37.5 g ai/ha,0%
same,herbicidal activity,[17]; herbicide A solo 75 g ai/ha,0%
same,herbicidal activity,[17]; herbicide A solo 150 g ai/ha,0%
same,herbicidal activity,[17]; herbicide A solo 300 g ai/ha,0%
